Measurements as given in PubChem BioAssay (NCI).
Several values for one entry are separate records, joined by “and”; a condition that tells them apart may be missing. Identical values can stand only once.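 Tested at 5 concentrations; 48 h exposure; 96-well plates; endpoints linearly interpolated, else capped at highest concentration. At the GI50, growth is halved. TGI marks complete inhibition of growth.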 *1 amine or outer side, *2 acyl side, *3 side chain or, on linkers, in order; H or OH if unused. Where a SMILES comes first, the peptide text is derived from it. Bridges are numbered along the chain shown (N, C = ends). [ ]: non-standard residue; d: D form. The star is where a group is joined. X38 = CC[C@H](C)[C@@H](N[*:1])[C@@H](O)CC(=O)[*:2]; NMeY = CN[C@@H](Cc1ccc(O)cc1)C(=O)O; dNMeL = CN[C@H](CC(C)C)C(=O)O; Hiv = CC(C)[C@H](O)C(=O)O; Pyruvoyl = CC(=O)C(=O)*; Cbz = O=C(OCc1ccccc1)*; OBn = c1ccc(CO*)cc1

Experiments:
Experiment in all cases: DTP human tumour cell line panel, 48 h
[1] = system: CAKI-1 renal
[2] = system: KM12 colon
[3] = system: SF-295 CNS
[4] = system: 786-0 renal
[5] = system: DU-145 prostate
[6] = system: BT-549 breast
[7] = system: T-47D breast
[8] = system: PC-3 prostate
[9] = system: SK-MEL-28 melanoma
[10] = system: NCI-H522 lung

SMILES | TGI [1] [µM] | TGI [2] [µM] | TGI [3] [µM] | TGI [4] [µM] | TGI [5] [µM] | TGI [6] | TGI [7] [µM] | TGI [8] | TGI [9] [µM] | TGI [10] [µM] | GI50 [1] [µM] | GI50 [2] [µM] | GI50 [3] [µM] | GI50 [6] [µM] | GI50 [7] [µM] | GI50 [8] [µM] | GI50 [9] [µM] | GI50 [10] [µM]
COc1ccc(/C=C2\OC(=O)C(Cl)=C2c2ccc(OC)cc2)cc1 | > 100 | > 100 | > 100 | > 100 | > 100 | > 100 µM | > 100 | > 100 µM | > 100 | > 100 |  |  |  |  |  |  |  | 
Nc1ccn(C2CC(O)C(COP(O)(=S)OC3CC(n4ccc(N)nc4=O)OC3CO)O2)c(=O)n1 (configuration not stated) | > 100 | > 100 | > 100 | > 100 | > 100 | > 100 µM | > 100 | > 100 µM | > 100 | > 100 |  |  |  |  |  |  |  | 
COc1ccccc1C1CC(=O)CC(c2ccccc2OC)C12C(=O)NC(=S)NC2=O (configuration not stated) | > 100 | > 100 | > 100 | > 100 | > 100 | > 100 µM | > 100 | > 100 µM | 95.6 | > 100 |  |  |  |  |  |  |  | 
Cc1c2ccncc2cc2c1sc1ccncc12 | 12.5 | 17.1 | 9.59 | 18 | 6.9 | 17.6 µM | 7.44 | 10.5 µM | 14.1 | 9.09 |  |  |  |  |  |  |  | 
COc1cc2cc(C(=O)N3CC(CCl)c4c3cc(NC(=O)C(C)(C)c3ccccc3[N+](=O)[O-])c3ccccc43)[nH]c2c(OC)c1OC (configuration not stated) |  |  |  | > 600 | 28.2 | 30.4 µM and 213 µM |  | 35.9 µM and 206 µM |  |  | 78.5 | 48.2 | 19.2 | 26.1 | 61.5 | 19.4 | 86.7 | 38.4
O=S1(=O)c2cnccc2NC(=NCc2cccc3ccccc23)N1c1ccccc1 | > 100 | > 100 | > 100 | 74.7 | > 100 | > 100 µM | > 100 | > 81.8 µM | > 100 | > 100 |  |  |  |  |  |  |  | 
NC(=O)C(Nc1c(Cl)cccc1Cl)c1cc2cc(Br)ccc2nc1Cl (configuration not stated) | > 100 | > 100 | > 100 | > 100 | > 100 | > 100 µM | > 100 | > 100 µM | > 100 | > 100 |  |  |  |  |  |  |  | 
Clc1cccc(Cl)c1C=NC12CC3CC(CC(C3)C1)C2 | > 10 | > 10 | > 10 | > 10 | > 10 | > 10 µM | > 10 | > 10 µM | > 10 | > 10 |  |  |  |  |  |  |  | 
CC(C)OP(=O)(OC(C)C)C(C(C)C)N(C)/C(N)=N\C1=NC(C(F)(F)F)(C(F)(F)F)N=C(C(C(F)(F)F)C(F)(F)F)O1 (configuration not stated) | 11.2 | 14 | 18 | 12.4 | 25.6 | 8.2 µM | 31.3 | 8.42 µM | 12.4 | 3.09 |  |  |  |  |  |  |  | 
COC(=O)CNC(=O)C(C)NC(=O)C(CC(=O)OCc1ccccc1)NC(=O)OCc1ccccc1 (stereo not drawn) (Cbz-Asp(OBn)-Ala-Gly-OMe; configuration not given here) | > 100 | > 100 | > 100 | > 100 | > 100 | > 100 µM | 70.3 | > 100 µM | > 100 | > 100 |  |  |  |  |  |  |  | 
CC1=C(C(=O)Nc2cccc3c2C(=O)NC3=O)CC(C(=O)Nc2cccc3c2C(=O)NC3=O)=C(C)N1 | > 100 | > 100 | > 100 | > 100 | > 100 | > 100 µM | > 100 | > 100 µM | > 100 | > 100 |  |  |  |  |  |  |  | 
NCCCNCCCNCCCN | > 100 | > 100 | > 100 | > 100 | > 100 | > 100 µM | > 100 | > 100 µM | > 100 | > 100 |  |  |  |  |  |  |  | 
CC[C@H](C)[C@H]1NC(=O)[C@@H](NC(=O)[C@@H](CC(C)C)N(C)C(=O)[C@@H]2CCCN2C(=O)C(C)=O)[C@@H](C)OC(=O)[C@H](Cc2ccc(OC)cc2)N(C)C(=O)[C@@H]2CCCN2C(=O)[C@H](CC(C)C)NC(=O)[C@H](C(C)C)OC(=O)C[C@@H]1O (Pyruvoyl-P[dNMeL]T[X38][Hiv]LP[NMeY](Me); ester 3-C) | 1.22 | 0.151 | 0.525 | 0.0397 | 0.00299 | 0.0181 µM | 0.0113 | 0.261 µM | 0.543 | 0.179 |  |  |  |  |  |  |  | 
O=C(O)c1c[nH]c2c(Sc3ccccc3)nccc2c1=O | > 100 | > 100 | > 100 | > 100 | > 100 | > 100 µM | > 100 | > 100 µM | > 100 | > 100 |  |  |  |  |  |  |  | 
Cc1ccc(NCC2CC/C(=C\c3ccc(Cl)cc3)C2=O)cc1 (configuration not stated) | 21.7 | 19 | > 100 | 11.3 | > 80.6 | 36.5 µM | 46.5 | 37.5 µM | 36.7 | 15.8 |  |  |  |  |  |  |  | 
